In patent US10442804B2, “Compounds for the treatment of hepatitis B virus infection” (Gilead Sciences, Inc., priority 2017, dated 2019):
Like-named read-outs stand apart in the source and are kept apart here.

Columns and labels:
[1] = system: HBV-infected NTCP-HepG2 cells, secreted HBsAg; assay: microbe, parasite or virus in culture; type: cell-based, hepatitis B virus (genotype D, AD38-derived); settings: secreted HBsAg in supernatant after 5 days, geometric mean of minimum four determinations, read-out: NTCP HBsAg EC50
Protocol: NTCP-HepG2 Antiviral Assay for Secreted HBsAg
HepG2 cells stably expressing sodium-taurocholate cotransporting polypeptide (NTCP-HepG2) were grown in Dulbecco's Modified Eagle Medium (DMEM) without sodium pyruvate (Thermo Fisher Scientific, Waltham, Mass.) supplemented with 10% fetal bovine serum, 2 mM L-glutamine, 1% penicillin/streptomycin, and 0.25 mg/mL G-418. NTCP-HepG2 cells were infected with 4000 genome equivalent per cell of genotype D (AD38-derived) HBV in DMEM without sodium pyruvate (Thermo Fisher Scientific, Waltham, Mass.) supplemented with 2% fetal bovine serum, 2 mM L-glutamine, 1% penicillin/streptomycin, 2.5% DMSO, and 4% PEG 8000 (Promega, Madison, Wis.). After 24-hour incubation, cells were washed three times with OptiMEM (Thermo Fisher Scientific, Waltham, Mass.) and fed with fresh DMEM without sodium pyruvate (Thermo Fisher Scientific, Waltham, Mass.) supplemented with 2% fetal bovine serum, 2 mM L-glutamine, 1% penicillin/streptomycin, and 2.5% DMSO. At 4 days after infection, infected NTCP-HepG2 cells were seeded on 384-well plates pre-coated with collagen at a density of 20000 cells per well containing serially diluted compounds of the present disclosure or DMSO (0.5%) in a final volume of 80 μl of DMEM without sodium pyruvate (Thermo Fisher Scientific, Waltham, Mass.) supplemented with 2% fetal bovine serum, 2 mM L-glutamine, 1% penicillin/streptomycin, and 1% DMSO. After an incubation time of 5 days, cell culture supernatant was collected and measured for HBsAg.
Secreted HBsAg in the supernatant were measured using a multiplex chemiluminescent MSD assay (Meso Scale Discovery, Rockville, Md.) using capture and detection antibody pairs specific for HBsAg. The EC50 values were calculated from the fit of the dose-response curves to a four-parameter equation. All EC50 values represent geometric mean values of a minimum of four determinations.

MT-4 cytotoxicity assay = type: cell-based, human; settings: human
Protocol: Biological Example 2: MT-4 Cytotoxicity Assay
The MT-4 cell line (HTLV-1 transformed, human T lymphoblastoid cells) was obtained from the NIH AIDS Reagent program (Bethesda, Md.). MT-4 cells were maintained in RPMI-1640 media (Thermo Fisher Scientific, Waltham, Mass.) supplemented with 10% fetal bovine serum, 100 Units/mL penicillin, and 100 μg/mL streptomycin. For the MT-4 cytotoxicity assay, 0.4 μL of serially diluted solutions of certain compounds disclosed herein were added to 40 μL of cell maintenance media in 384-well black, solid bottom plate using a Biomek FX workstation (Beckman Coulter, Brea, Calif.). Two thousand cells in 35 μL were added to each well using a Biotek uFlow Workstation (Biotek, Winooski, Vt.). Each assay plate contained 10 μM puromycin (final concentration) and 0.5% DMSO in RPMI-1640 media as positive and negative controls, respectively. Assay plates were incubated for five days at 37° C. in an incubator set at 5% CO2 and 90% humidity. After five days, 22 μL of Cell Titer Glo reagent (Promega, Madison, Wis.) was added to the assay plates with a Biotek uFlow Workstation. Plates were subsequently placed on an Envision Plate Reader (Perkin Elmer, Waltham, Mass.) for five minutes before the luminescence signal was read. CC50 values were defined as the compound concentration that caused a 50% decrease in luminescence signal, and were calculated by non-linear regression using Pipeline Pilot software by applying a four parameter fit equation (Accelrys, San Diego, Calif.) and are reported in the following Table 1.

[2] = five days, Cell Titer Glo luminescence, read-out: MT-4 CC50

Row | SMILES | EC50 ([1]; Hepatitis B virus, 120 h) [nM] | CC50 at 5 days (MT-4 cytotoxicity assay; [2]) [nM] | CC50 at 5 days (MT-4 cytotoxicity assay; MT-4 CC50) [nM] | EC50 [1] [nM]
1 | COCCCOc1cc2c(cc1Cl)-c1cc(=O)c(C(=O)O)cn1N1[C@H]2CCCC1(C)C (single isomer, unassigned) [Example 13] | 34 | > 10000 |  | 
2 | COCCCOc1cc2c(cc1Cl)-c1cc(=O)c(C(=O)O)cn1N1CCC(C)(C)[C@H]21 (single isomer, unassigned) [Example 47] | 16 | 1700 |  | 
3 | COc1cc2c(cc1C#Cc1cnc3cccnn13)[C@H]1CCC(C)(C)N1n1cc(C(=O)O)c(=O)cc1-2 [Example 68, (R)-12-(imidazo[1,2-b]pyridazin-3-ylethynyl)-11-methoxy-3,3-dimethyl-8-oxo-2,3,8,13b-tetrahydro-1H-pyrido[2,1-a]pyrrolo[1,2-c]phthalazine-7-carboxylic acid] | 2.9 | > 10000 |  | 
4 | COCCCOc1cc2c(cc1S(C)(=O)=O)-c1cc(=O)c(C(=O)O)cn1N1[C@@H]2CCC1(C)C [Example 69, (R)-12-(3-methoxypropoxy)-3,3-dimethyl-11-(methylsulfonyl)-8-oxo-2,3,8,13b-tetrahydro-1H-pyrido[2,1-a]pyrrolo[1,2-c]phthalazine-7-carboxylic acid] | 52 | > 10000 |  | 
5 | CC1(C)CC[C@@H]2c3cc(OCC4COC4)c(C4CC4)cc3-c3cc(=O)c(C(=O)O)cn3N21 [Example 66, (R)-11-cyclopropyl-3,3-dimethyl-12-(oxetan-3-ylmethoxy)-8-oxo-2,3,8,13b-tetrahydro-1H-pyrido[2,1-a]pyrrolo[1,2-c]phthalazine-7-carboxylic acid] | 0.97 | > 10000 |  | 
6 | COCCCOc1cc2c(cc1OCCCOC)[C@H]1CCC(C)(C)N1n1cc(C(=O)O)c(=O)cc1-2 [Example 23, (R)-11,12-bis(3-methoxypropoxy)-3,3-dimethyl-8-oxo-2,3,8,13b-tetrahydro-1H-pyrido[2,1-a]pyrrolo[1,2-c]phthalazine-7-carboxylic acid] | 53 | > 10000 |  | 
7 | COCc1cc2c(cc1OCC1(COC)CC1)[C@H]1CCC(C)(C)N1n1cc(C(=O)O)c(=O)cc1-2 [Compound 109, (R)-11-(methoxymethyl)-12-((1-(methoxymethyl)cyclopropyl)methoxy)-3,3-dimethyl-8-oxo-2,3,8,13b-tetrahydro-1H-pyrido[2,1-a]pyrrolo[1,2-c]phthalazine-7-carboxylic acid] | 13.2 | > 10000 |  | 
8 | CCc1cc2c(cc1OCC13CC(C#N)(C1)C3)[C@H]1CCC(C)(C)N1n1cc(C(=O)O)c(=O)cc1-2 [Example 100, (R)-12-((3-cyanobicyclo[1.1.1]pentan-1-yl)methoxy)-11-ethyl-3,3-dimethyl-8-oxo-2,3,8,13b-tetrahydro-1H-pyrido[2,1-a]pyrrolo[1,2-c]phthalazine-7-carboxylic acid] | 0.48 | 3900 |  | 
9 | CC1(C)CC[C@@H]2c3cc(OCCn4nc5ccccn5c4=O)c(C4CC4)cc3-c3cc(=O)c(C(=O)O)cn3N21 [Example 96, (R)-11-cyclopropyl-3,3-dimethyl-8-oxo-12-(2-(3-oxo-[1,2,4]triazolo[4,3-a]pyridin-2(3H)-yl)ethoxy)-2,3,8,13b-tetrahydro-1H-pyrido[2,1-a]pyrrolo[1,2-c]phthalazine-7-carboxylic acid] | 0.17 | > 10000 |  | 
10 | COCCCOc1cc2c(cc1COC)-c1cc(=O)c(C(=O)O)cn1N1[C@@H]2COCC12CCC2 [Compound 114, (S)-12′-(methoxymethyl)-13′-(3-methoxypropoxy)-9′-oxo-9′,14b′-dihydro-1′H,3′H-spiro[cyclobutane-1,4′-[1,4]oxazino[3,4-a]pyrido[1,2-c]phthalazine]-8′-carboxylic acid] | 67.6 |  | > 10000 | 
11 | COCCCOc1cc2c(cc1COC)-c1cc(=O)c(C(=O)O)cn1N1[C@@H]2COCC1(C)C [Example 102, (S)-12-(methoxymethyl)-13-(3-methoxypropoxy)-4,4-dimethyl-9-oxo-3,4,9,14b-tetrahydro-1H-[1,4]oxazino[3,4-a]pyrido[1,2-c]phthalazine-8-carboxylic acid] | 11.5 | > 10000 |  | 
12 | COCCCOc1cc2c(cc1Cl)-c1cc(=O)c(C(=O)O)cn1N1[C@@H]2CCC1(COC)COC [Example 80, (R)-11-chloro-3,3-bis(methoxymethyl)-12-(3-methoxypropoxy)-8-oxo-2,3,8,13b-tetrahydro-1H-pyrido[2,1-a]pyrrolo[1,2-c]phthalazine-7-carboxylic acid] | 45 | > 10000 |  | 
13 | COCCCOc1cc2c(cc1Cl)-c1cc(=O)c(C(=O)O)cn1N1CCC(C)(C)[C@@H]21 (single isomer, unassigned) [Example 48] | > 1000 | 2200 |  | 
14 | CC1(C)CC[C@@H]2c3cc(C#CC(C)(C)S(C)(=O)=O)c(OC(F)F)cc3-c3cc(=O)c(C(=O)O)cn3N21 [Compound 112, (R)-11-(difluoromethoxy)-3,3-dimethyl-12-(3-methyl-3-(methylsulfonyl)but-1-yn-1-yl)-8-oxo-2,3,8,13b-tetrahydro-1H-pyrido[2,1-a]pyrrolo[1,2-c]phthalazine-7-carboxylic acid] | 2.7 | > 10000 |  | 
15 | [2H]C([2H])(OC)C([2H])([2H])C([2H])([2H])Oc1cc2c(cc1COC)-c1cc(=O)c(C(=O)O)cn1N1[C@@H]2CCC1(C)C [Compound 118, (R)-11-(methoxymethyl)-12-(3-methoxypropoxy-1,1,2,2,3,3-d6)-3,3-dimethyl-8-oxo-2,3,8,13b-tetrahydro-1H-pyrido[2,1-a]pyrrolo[1,2-c]phthalazine-7-carboxylic acid] | 4.1 | > 10000 |  | 
16 | O=C(O)c1cn2c(cc1=O)-c1cc(Cl)c(-c3cnn(C4COC4)c3)cc1[C@H]1CCC3(CC3)N12 [Example 86, (R)-11′-chloro-12′-(1-(oxetan-3-yl)-1H-pyrazol-4-yl)-8′-oxo-1′,2′,8′,13b′-tetrahydrospiro[cyclopropane-1,3′-pyrido[2,1-a]pyrrolo[1,2-c]phthalazine]-7′-carboxylic acid] | 24.8 |  | > 10000 | 
17 | COCCCOc1cc2c(cc1OCCCOC)[C@@H]1CCC(C)(C)N1n1cc(C(=O)O)c(=O)cc1-2 [Example 24, (S)-11,12-bis(3-methoxypropoxy)-3,3-dimethyl-8-oxo-2,3,8,13b-tetrahydro-1H-pyrido[2,1-a]pyrrolo[1,2-c]phthalazine-7-carboxylic acid] | > 1000 | > 10000 |  | 
18 | COCCOCc1cc2c(cc1OC)-c1cc(=O)c(C(=O)O)cn1N1[C@@H]2CCC1(C)C [Example 78, (R)-11-methoxy-12-((2-methoxyethoxy)methyl)-3,3-dimethyl-8-oxo-2,3,8,13b-tetrahydro-1H-pyrido[2,1-a]pyrrolo[1,2-c]phthalazine-7-carboxylic acid] | 70 | > 10000 |  | 
19 | COCCCOc1cc2c(cc1Cl)-c1cc(=O)c(C(=O)O)cn1N1CCC[C@@H]21 (single isomer, unassigned) [Example 3] | > 1000 | 9100 |  | 
20 | COCCCOc1cc2c(cc1Cl)-c1cc(=O)c(C(=O)O)cn1[C@H]1[C@H]2CCC1(C)C (racemic) [Example 31, trans-10-Chloro-11-(3-methoxypropoxy)-3,3-dimethyl-7-oxo-1,2,3,3a,7,12b-hexahydrocyclopenta[c]pyrido[2,1-a]isoquinoline-6-carboxylic acid] |  | > 10000 |  | 6.4
21 | COCCCOc1cc2c(cc1OC(F)F)-c1cc(=O)c(C(=O)O)cn1N1[C@@H]2CCC1(C)C (single isomer, unassigned) [Example 19] | 1.2 | > 10000 |  | 
